This is an account of results in patent US7589123B2, “Chemical compounds” (Phytopharm PLC, priority 2006, dated 2009).

The test system of series [1] is histamine-induced contractions in guinea pig ileum. Put plainly: Inhibition of histamine-induced contractions in guinea pig ileum (Assay 3). The conditions noted are these: Cavia porcellus, histamine 1.7 μM, read-out: Inhibition of histamine-induced contraction (%). Here is the method:
(§1) Duncan Hartley derived male guinea pigs (325±25 g) were suppressed by CO2 overexposure, the abdominal cavity was exposed and ileal segments were removed. Small strips of ileum were suspended in organ baths containing Krebs solution (composition in g/l: NaCl 6.89, KCl 0.35, CaCl2 0.277, KH2PO4 0.163, MgSO4.7H2O 0.296, NaHCO3 2.1 glucose 1.8). The solution was kept at 32° C. and gassed with O2 (95%)-CO2 (5%) to maintain pH at 7.4. Mechanical activity was recorded by means of isotonic transducers. A resting tension of 1 g was applied to muscle strips before being equilibrated for 1 h, prior to test compound addition. Each preparation was washed twice at 15 min intervals during the equilibration.
(§2) Histamine (1.7 μM; approximately EC60-70) or 5-hydroxytryptamine (5-HT, 2.6 μM; approximately EC60-70) was applied for 5 min and the amplitude of the contraction recorded. The histamine or 5-HT was then washed out until the ileal tissue returned to baseline. Five min after returning to baseline test compound (3 and 30 μM) was applied and the amplitude of the contraction (if any) was recorded. In the continuous presence of test compound, histamine or 5-HT was re-applied and the inhibition of the response was recorded.

For series [2], the system named is 5-HT-induced contractions in guinea pig ileum. Put plainly: Inhibition of 5-HT-induced contractions in guinea pig ileum (Assay 3). The conditions noted are these: Cavia porcellus, 5-HT 2.6 μM, read-out: Inhibition of 5-HT-induced contraction (%). Here is the method:
as §1, §2

Series [3] concerns α-smooth muscle actin (α-SMA) mRNA. The series can be described thus: Anti-remodelling activity in human lung fibroblasts (HFL1): TGFβ-induced α-SMA mRNA (Assay 4). Format: cell-based. To be noted: Homo sapiens, HFL1 cells, TGFβ 10 ng/ml, 24 h, read-out: Inhibition of α-SMA mRNA synthesis (%). Here is the method:
A human foetal lung fibroblast cell line (HFL1 cells; ATCC accession number CCl-153) was used in this assay. The cells were cultured in medium containing a low level of foetal bovine serum (FBS; 0.1%) for 24 h. After 24 h of culturing the medium was changed to: (a) Control medium (medium containing 10% FBS, 1% phosphate saline and 0.5 mM L-glutamine), (b) Control medium and transforming growth factor beta (TGFβ; 10 ng/ml), (c) Control medium and TGFβ and test compounds (3 and 30 μM). The medium was collected after 24 h and the total mRNA extracted in Tri-reagent. The level of mRNA coding for α-smooth muscle actin (α-SMA) was assessed by real-time reverse transcription-polymerase chain reaction (rtRT-PCR) using primer couples that allow the amplification of α-SMA mRNA. Liver glyceraldehydes 3-phosphate dehydrogenase (GADPH) was used as a reference marker in this experiment. The inhibition of the TGTβ-induced overexpression of α-SMA mRNA by the test compounds was quantified.

The test system of series [4] is IL-1α-induced PGE2 release. The series can be described thus: IL-1α-induced PGE2 release in human diploid lung fibroblasts (WI-38) (Assay 5). The class given is cell-based. To be noted: Homo sapiens, WI-38 cells, IL-1α 1 nM, overnight. How it is done:
(§3) Human diploid lung fibroblasts (WI-38 cells) were incubated overnight in the presence of IL-1α (1 nM) and test compound (3 and 30 μM) in modified Eagle medium at pH 7.3 containing foetal bovine serum (10%) at 37° C. The supernatant was assayed by radioimmunoassay for released PGE2 and the inhibition of PGE2 by test compound calculated (Table 10). The viability of the cells was then assessed by washing with Roswell Park Memorial Institute medium and adding Alamar Blue reagent before being incubated at 37° C. for 4 h. Living cells take up Alamar Blue and emit fluorescence when excited. Fluorescence intensity was measured using a SpectroFluor Plus plate reader with excitation at 530 nm and emission at 590 nm (Table 10).

The next series relates to WI-38 cells. Put plainly: Viability of WI-38 cells, Alamar Blue (Assay 5). Format: cell-based, human. How it is done:
as §3

In a further series the target is T1, 5-lipoxygenase (Homo sapiens, UniProt P09917).
T1 construct: endogenous in cells; host or cells: human peripheral blood mononuclear leukocytes (PBMLs)
T1 sequence (P09917 1-674): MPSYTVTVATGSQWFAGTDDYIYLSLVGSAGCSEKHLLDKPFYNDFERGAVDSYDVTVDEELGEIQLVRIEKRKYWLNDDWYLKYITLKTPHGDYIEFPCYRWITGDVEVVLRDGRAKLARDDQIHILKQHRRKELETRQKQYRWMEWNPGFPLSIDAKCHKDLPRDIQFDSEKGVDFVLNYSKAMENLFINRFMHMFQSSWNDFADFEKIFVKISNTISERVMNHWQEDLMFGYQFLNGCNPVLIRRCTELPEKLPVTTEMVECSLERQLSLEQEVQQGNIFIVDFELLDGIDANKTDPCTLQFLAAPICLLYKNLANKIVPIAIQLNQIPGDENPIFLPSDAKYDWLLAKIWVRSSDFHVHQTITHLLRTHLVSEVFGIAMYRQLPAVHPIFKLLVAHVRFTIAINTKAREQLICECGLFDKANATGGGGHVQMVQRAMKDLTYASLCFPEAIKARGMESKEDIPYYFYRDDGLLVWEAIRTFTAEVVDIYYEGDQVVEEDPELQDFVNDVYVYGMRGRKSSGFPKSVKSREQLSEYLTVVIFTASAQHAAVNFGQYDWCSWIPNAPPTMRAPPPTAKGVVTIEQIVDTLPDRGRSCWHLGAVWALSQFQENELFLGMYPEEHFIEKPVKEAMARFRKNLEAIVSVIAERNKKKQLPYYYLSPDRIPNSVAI
The series can be described thus: 5-lipoxygenase activity (LTB4) in human peripheral blood mononuclear leukocytes (Assay 6). Format: cell-based. To be noted: human PBMLs, A23187 30 μM, read-out: Inhibition of 5-LO (%). Here is the method: Human peripheral blood mononuclear leukocytes (PBMLs) were isolated using a Ficoll-Paque density gradient. Human peripheral blood mononuclear leukocytes (5×10^6 cells) were incubated with A23187 (30 μM), a divalent cation ionophore used to initiate the biosynthesis of […], and with vehicle (0.1% DMSO) or test compound (3 and 30 μM) in Hank's balanced salt solution (HBBS) buffer, pH 7.4 at 37° C. for 15 min. The PBML solution was neutralized with NaOH (1 N) and centrifuged at 1000 g for 10 min and the supernatant collected. The concentration of leukotriene B4 (LTB4) in the supernatant was measured using an enzyme immunoassay kit (Assay Design Inc.). A reduction in the concentration of LTB4 indicated an inhibition of the enzyme 5-lipoxygenase (Table 11).

The next series deals with TRPV1 receptor (Rattus norvegicus, UniProt O35433). Put plainly: TRPV1 modulation in DRG neurones: CGRP release in absence and presence of capsaicin (Assay 2). The class given is cell-based. Also noted: The culture used for this experiment contained sensory neurones, Schwann cells and fibroblasts; endogenous in cells; host or cells: primary rat DRG sensory neurone culture (with Schwann cells and fibroblasts). The conditions noted are these: 20 min; for inhibition at 3 µM: 3 μM with capsaicin 1 μM; for inhibition at 3 µM / inhibition at 30 µM: −ve: inhibition, +ve: potentiation of capsaicin response, read-out: Effect of test compounds on capsaicin (1 μM)-induced CGRP release (%); for inhibition at 30 µM: 30 μM with capsaicin 1 μM; for Emax at 3 µM: test compound alone 3 μM; for Emax at 3 µM / Emax at 30 µM: rat DRG sensory neurones, read-out: CGRP release (% of capsaicin (1 μM) response); for Emax at 30 µM: test compound alone 30 μM.
Sequence of TRPV1 receptor (O35433 whole entry): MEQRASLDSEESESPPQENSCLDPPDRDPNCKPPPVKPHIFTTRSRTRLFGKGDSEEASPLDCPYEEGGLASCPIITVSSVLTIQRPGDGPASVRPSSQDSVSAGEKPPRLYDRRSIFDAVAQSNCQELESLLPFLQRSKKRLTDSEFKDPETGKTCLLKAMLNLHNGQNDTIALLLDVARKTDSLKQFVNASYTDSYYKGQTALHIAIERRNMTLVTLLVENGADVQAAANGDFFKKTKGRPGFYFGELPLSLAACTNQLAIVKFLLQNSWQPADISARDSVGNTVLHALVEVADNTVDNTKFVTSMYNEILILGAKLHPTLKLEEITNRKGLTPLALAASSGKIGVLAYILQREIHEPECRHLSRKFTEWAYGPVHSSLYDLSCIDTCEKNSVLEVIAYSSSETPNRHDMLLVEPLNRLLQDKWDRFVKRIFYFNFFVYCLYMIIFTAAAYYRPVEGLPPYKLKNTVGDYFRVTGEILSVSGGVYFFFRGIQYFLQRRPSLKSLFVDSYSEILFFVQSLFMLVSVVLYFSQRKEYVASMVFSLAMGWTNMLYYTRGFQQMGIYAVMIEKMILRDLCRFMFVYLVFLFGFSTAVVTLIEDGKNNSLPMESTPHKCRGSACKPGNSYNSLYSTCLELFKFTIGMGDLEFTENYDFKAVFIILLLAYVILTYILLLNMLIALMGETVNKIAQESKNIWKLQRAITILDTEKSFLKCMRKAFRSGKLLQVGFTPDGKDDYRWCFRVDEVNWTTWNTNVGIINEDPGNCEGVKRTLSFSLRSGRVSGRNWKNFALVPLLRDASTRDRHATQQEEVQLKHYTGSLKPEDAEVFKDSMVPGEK

Turning to `COc1cc(CCC(=O)C(Cc2ccccc2)C(=O)c2ccccc2)ccc1O` (centres unmarked) [Compound 13, 2-Benzyl-5-(4-hydroxy-3-methoxyphenyl)-1-phenylpentane-1,3-dione], the inhibition at 3 µM in series [1] was found to be 6%; in series [2] it was 15%; in series [3], 14%; in series [4], 73%; on 5-lipoxygenase it was 51%; on TRPV1 receptor, 48%. Further, the inhibition at 30 µM in series [1] was 78%; in series [2], 66%; in series [3], 77%; in series [4], 99%; at 5-lipoxygenase it was 98%; at TRPV1 receptor, -67%. Further, the “Decrease in cell viability (%)” value was −4% in the series on WI-38 cells (3 μM) and −3% in the series with WI-38 cells (30 μM). Moreover, the Emax at 3 µM at TRPV1 receptor came out at 75%. The Emax at 30 µM on TRPV1 receptor was determined as 245%.

In the case of `COc1cc(CCC(=O)C(C)C(=O)c2ccc(C)cc2)ccc1O` (centres unmarked) [Compound 14, 5-(4-Hydroxy-3-methoxylphenyl)-2-methyl-1-p-tolyl-pentane-1,3-dione], the inhibition at 3 µM was 10% in series [1]; 10% in series [2]; 11% in series [3]; 77% in series [4]; 57% at 5-lipoxygenase; -12% at TRPV1 receptor. In addition, the inhibition at 30 µM was found to be 54% in series [1]; 74% in series [2]; 17% in series [3]; 101% in series [4]; 96% on 5-lipoxygenase; 35% at TRPV1 receptor. The “Decrease in cell viability (%)” value in the series on WI-38 cells (3 μM) was 5%; with WI-38 cells (30 μM) it was −4%. Also, the Emax at 3 µM at TRPV1 receptor is 120%. In addition, on TRPV1 receptor, the Emax at 30 µM came to 94%.

`COc1cc(CCC(=O)CC(=O)c2ccc(O)c(OC)c2)ccc1O` [Compound 15, 1,5-Bis(4-hydroxy-3-methoxyphenyl)-pentane-1,3-dione]: the inhibition at 3 µM was found to be 0% in series [1]; 0% in series [2]; 13% in series [3]; 49% in series [4]; 16% on 5-lipoxygenase; 18% on TRPV1 receptor. In addition, the inhibition at 30 µM in series [1] came out at 13%; in series [2] it was 54%; in series [3], 29%; in series [4], 95%; at 5-lipoxygenase, 63%; on TRPV1 receptor, 27%. The results for the “Decrease in cell viability (%)” value with WI-38 cells (3 μM) and with WI-38 cells (30 μM) were −2% and −1%, respectively. Besides, the Emax at 3 µM at TRPV1 receptor came to 34%. Also, at TRPV1 receptor, the Emax at 30 µM was determined as 34%.

Turning to `COc1cc(CCC(=O)C(C)C(=O)c2ccc(O)c(OC)c2)ccc1O` (centres unmarked) [Compound 16, 1,5-Bis(4-hydroxy-3-methoxyphenyl)-2-methyl-pentane-1,3-dione], the inhibition at 3 µM in series [1] was 4%; in series [2], 0%; in series [3], -8%; in series [4] it was 32%; at 5-lipoxygenase, 20%; at TRPV1 receptor, -49%. In addition, the inhibition at 30 µM is 22% in series [1]; 28% in series [2]; 10% in series [3]; 83% in series [4]; 73% on 5-lipoxygenase; -49% on TRPV1 receptor. Moreover, the “Decrease in cell viability (%)” value in the series with WI-38 cells (3 μM) is given as 10%; with WI-38 cells (30 μM), −9%. Besides, the Emax at 3 µM on TRPV1 receptor stood at 53%. Further, the Emax at 30 µM on TRPV1 receptor came out at 52%.

`COc1ccc(C(=O)C(C)C(=O)CCc2ccc(O)c(OC)c2)cc1` (centres unmarked) [Compound 17, 5-(4-Hydroxy-3-methoxyphenyl)-1-(4-methoxyphenyl)-2-methyl-pentane-1,3-dione]: the inhibition at 3 µM in series [1] was 3%; in series [2], 6%; in series [3] it was -1%; in series [4], 58%; at 5-lipoxygenase, 51%; on TRPV1 receptor, -98%. The inhibition at 30 µM in series [1] is 29%; in series [2], 42%; in series [3] it was 31%; in series [4], 98%; at 5-lipoxygenase, 95%; at TRPV1 receptor it was -22%. Further, the entries for the “Decrease in cell viability (%)” value in the series on WI-38 cells (3 μM) and in the series with WI-38 cells (30 μM) were −1% and 4%, respectively. The Emax at 3 µM on TRPV1 receptor came out at 55%. Also, at TRPV1 receptor, the Emax at 30 µM turned out to be 183%.
